Measurements taken from EP4778924A1 (Huons Co., Ltd., priority 2023, dated 2025).
Counter-ions that a name gives are not always drawn.

These compounds were tested against T1, Proton Pump (H^+,K^+-ATPase) (Sus scrofa, UniProt P19156) (assay: Inhibitory activity on proton pump (H+,K+-ATPase) activity, porcine gastric vesicles, malachite green readout). Details: porcine gastric vesicles, pH 6.5, 8 mM KCl, 0.2 mM ATP.
T1 construct: gastric vesicles were isolated from porcine stomachs; from tissue; host or cells: porcine stomach (gastric vesicles)
T1 sequence (P19156 2-1034 limits assumed): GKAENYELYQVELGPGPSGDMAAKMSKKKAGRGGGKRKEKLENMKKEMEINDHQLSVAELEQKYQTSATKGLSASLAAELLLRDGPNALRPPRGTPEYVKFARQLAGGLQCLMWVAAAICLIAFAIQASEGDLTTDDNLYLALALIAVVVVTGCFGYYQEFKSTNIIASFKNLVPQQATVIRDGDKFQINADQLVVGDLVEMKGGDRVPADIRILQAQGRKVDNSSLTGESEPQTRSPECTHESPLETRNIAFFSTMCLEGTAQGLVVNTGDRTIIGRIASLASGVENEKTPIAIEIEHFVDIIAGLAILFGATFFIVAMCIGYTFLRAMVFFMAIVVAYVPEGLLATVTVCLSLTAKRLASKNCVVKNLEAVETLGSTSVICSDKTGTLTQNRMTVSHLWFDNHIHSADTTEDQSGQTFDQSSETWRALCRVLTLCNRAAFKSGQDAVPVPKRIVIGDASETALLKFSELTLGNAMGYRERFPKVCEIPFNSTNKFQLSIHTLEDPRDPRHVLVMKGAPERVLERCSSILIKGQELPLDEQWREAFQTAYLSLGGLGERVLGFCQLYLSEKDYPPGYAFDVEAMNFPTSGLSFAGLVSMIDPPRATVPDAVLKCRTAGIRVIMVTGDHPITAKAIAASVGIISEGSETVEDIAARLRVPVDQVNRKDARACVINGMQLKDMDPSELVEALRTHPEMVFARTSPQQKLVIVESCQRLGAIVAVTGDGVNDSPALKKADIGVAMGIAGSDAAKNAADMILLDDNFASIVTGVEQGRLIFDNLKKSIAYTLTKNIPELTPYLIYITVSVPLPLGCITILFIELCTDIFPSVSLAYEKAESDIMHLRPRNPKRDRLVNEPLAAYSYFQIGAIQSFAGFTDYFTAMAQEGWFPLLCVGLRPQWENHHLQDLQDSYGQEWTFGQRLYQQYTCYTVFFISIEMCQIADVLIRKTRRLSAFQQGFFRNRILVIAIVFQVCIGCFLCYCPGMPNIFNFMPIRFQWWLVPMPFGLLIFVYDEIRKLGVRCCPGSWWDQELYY
T1 sequence (P18434 whole entry partner): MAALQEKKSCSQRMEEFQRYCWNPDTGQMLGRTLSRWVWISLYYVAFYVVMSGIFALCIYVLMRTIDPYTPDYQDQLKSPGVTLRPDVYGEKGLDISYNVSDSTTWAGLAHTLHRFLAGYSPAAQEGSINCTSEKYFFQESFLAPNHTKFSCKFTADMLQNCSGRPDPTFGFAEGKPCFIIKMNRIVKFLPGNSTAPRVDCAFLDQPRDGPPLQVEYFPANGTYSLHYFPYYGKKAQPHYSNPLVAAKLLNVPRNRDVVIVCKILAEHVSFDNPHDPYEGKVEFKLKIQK
Format: biochemical
Method in brief: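 Porcine gastric vesicles (100 ng) preincubated 30 min at 37°C with […] valinomycin and compound (0.1% DMSO final) in 50 mM Tris-HEPES, 5 mM MgCl2, 8 mM KCl, pH 6.5, then 0.2 mM ATP for 20 min at 37°C. Released phosphate measured by malachite green at 620 nm; IC50 via nonlinear regression of % inhibition.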

| Compound | IC50 |
| --- | --- |
| Cc1cc(F)cc(C)c1CNc1cc(NC(=O)C2(O)CC2)cn2c(C)c(C)nc12 [Example 115, N-(8-((4-fluoro-2,6-dimethylbenzyl)amino)-2,3-dimethylimidazo[1,2-a]pyridin-6-yl)-1-hydroxycyclopropane-1-carboxamide] | < 50 nM |
| Cc1cccc(C)c1CNc1cc(NC(=O)N(C)CCN)cn2c(C)c(C)nc12 [Example 87, 1-(2-aminoethyl)-3-(8-((2,6-dimethylbenzyl)amino)-2,3-dimethylimidazo[1,2-a]pyridin-6-yl)-1-methylurea hydrochloride] | < 50 nM |
| Cc1cccc(C)c1CNc1cc(NS(=O)(=O)C2CCC2)cn2c(C)c(C)nc12 [Example 18, N-(8-((2,6-dimethylbenzyl)amino)-2,3-dimethylimidazo[1,2-a]pyridin-6-yl)cyclobutanesulfonamide] | > 500 nM |
| Cc1cccc(C)c1CNc1cc(NC(=O)NCC2CCOC2)cn2c(C)c(C)nc12 (stereo not shown) [Example 74, 1-(8-((2,6-dimethylbenzyl)amino)-2,3-dimethylimidazo[1,2-a]pyridin-6-yl)-3-((tetrohydrofuran-3-yl)methyl)urea hydrochloride] | 50 to 100 nM |
| CCCNC(=O)Nc1cc(NCc2c(C)cccc2C)c2nc(C)c(C)n2c1 [Example 54] | 100 to 500 nM |
| Cc1cccc(C)c1CNc1cc(NC(=O)N2CCCC2)cn2c(C)c(C)nc12 [Example 11, N-(8-((2,6-dimethylbenzyl)amino)-2,3-dimethylimidazo[1,2-a]pyridin-6-yl)pyrrolidine-1-carboxamide] | 100 to 500 nM |
| CC(=O)Oc1ccc(/C=C/C(=O)Nc2cc(NCc3c(C)cccc3C)c3nc(C)c(C)n3c2)cc1 [Example 107, (E)-4-(3-((8-((2,6-dimethylbenzyl)amino)-2,3-dimethylimidazo[1,2-a]pyridin-6-yl)amino)-3-oxoprop-1-en-1-yl)phenyl acetate] | > 500 nM |
| CC(=O)OCCNC(=O)Nc1cc(NCc2c(C)cccc2C)c2nc(C)c(C)n2c1 [Example 62, 2-(3-(8-((2,6-dimethylbenzyl)amino)-2,3-dimethylimidazo[1,2-a]pyridin-6-yl)ureido)ethyl acetate hydrochloride] | 100 to 500 nM |
| Cc1cccc(C)c1CNc1cc(NC(=O)CCOCCC(=O)OC(C)(C)C)cn2c(C)c(C)nc12 [Example 41] | > 500 nM |
| Cc1cccc(C)c1CNc1cc(NC(=O)CNC(=O)CO)cn2c(C)c(C)nc12 [Example 95, N-(8-((2,6-dimethylbenzyl)amino)-2,3-dimethylimidazo[1,2-a]pyridin-6-yl)-2-(2-hydroxyacetamido)acetamide] | < 50 nM |
| CNC(=O)CNC(=O)Nc1cc(NCc2c(C)cccc2C)c2nc(C)c(C)n2c1 [Example 47, 2-(3-(8-((2,6-dimethylbenzyl)amino)-2,3-dimethylimidazo[1,2-a]pyridin-6-yl)ureido)-N-methylacetamide hydrochloride] | 50 to 100 nM |
| Cc1cccc(C)c1CNc1cc(NC(=O)C[C@H]2CCN2)cn2c(C)c(C)nc12 [Example 76, (R)-2-(azetidin-2-yl)-N-(8-((2,6-dimethylbenzyl)amino)-2,3-dimethylimidazo[1,2-a]pyridin-6-yl)acetamide hydrochloride] | 50 to 100 nM |
| Cc1cccc(C)c1CNc1cc(NC(=O)N[C@@H]2CCc3ccccc32)cn2c(C)c(C)nc12 [Example 80, (R)-1-(2,3-dihydro-1H-inden-1-yl)-3-(8-((2,6-dimethylbenzyl)amino)-2,3-dimethylimidazo[1,2-a]pyridin-6-yl)urea hydrochloride] | > 500 nM |
| Cc1cccc(C)c1CNc1cc(NC(=O)N2CCCC(c3ccccc3)C2)cn2c(C)c(C)nc12 (stereo not shown) [Example 83, N-(8-((2,6-dimethylbenzyll)amino)-2,3-dimethylimidazo[1,2-a]pyridin-6-yl)-3-phenylpiperidine-1-carboxamide] | 100 to 500 nM |
| Cc1cccc(C)c1CNc1cc(NC(=O)C(C)(C)N)cn2c(C)c(C)nc12 [Example 27, 2-amino-N-(8-((2,6-dimethylbenzyl)amino)-2,3-dimethylimidazo[1,2-a]pyridin-6-yl)-2-methylpropanamide hydrochloride] | 50 to 100 nM |
| tert-butyl (2-(3-(8-((2,6-dimethylbenzyl)amino)-2,3-dimethylimidazo[1,2-a]pyridin-6-yl)ureido)ethyl)carbamate hydrochloride [Example 42] | 100 to 500 nM |
| Cc1cccc(C)c1CNc1cc(NC(=O)CN(C)C)cn2c(C)c(C)nc12 [Example 53, 2-(dimethylamino)-N-(8-((2,6-dimethylbenzyl)amino)-2,3-dimethylimidazo[1,2-a]pyridin-6-yl)acetamide] | 100 to 500 nM |
| CC(=O)OC1(C(=O)Nc2cc(NCc3c(C)cc(F)cc3C)c3nc(C)c(C)n3c2)CC1 [Example 113, 1-((8-((4-fluoro-2,6-dimethylbenzyl)amino)-2,3-dimethylimidazo[1,2-a]pyridin-6-yl)carbamoyl)cyclopropyl acetate] | 100 to 500 nM |
| Cc1cccc(C)c1CNc1cc(NC(=O)N2Cc3ccncc3C2)cn2c(C)c(C)nc12 [Example 68, N-(8-((2,6-dimethylbenzyl)amino)-2,3-dimethylimidazo[1,2-a]pyridin-6-yl)-1,3-dihydro-2H-pyrrolo[3,4-c]pyridine-2-carboxamide] | 50 to 100 nM |
| CNC(=O)Nc1cc(NCc2c(C)cccc2C)c2nc(C)c(C)n2c1 [Example 33, hydrochloride] | < 50 nM |
| Cc1cccc(C)c1CNc1cc(NC(=O)[C@H]2CCN2)cn2c(C)c(C)nc12 [Example 36, (R)-N-(8-((2,6-dimethylbenzyl)amino)-2,3-dimethylimidazo[1,2-a]pyridin-6-yl)azetidine-2-carboxamide hydrochloride] | 50 to 100 nM |
| Cc1cccc(C)c1CNc1cc(NC(=O)N2CC(=O)C2)cn2c(C)c(C)nc12 [Example 69, N-(8-((2,6-dimethylbenzyl)amino)-2,3-dimethylimidazo[1,2-a]pyridin-6-yl)-3-oxoazetidine-1-carboxamide citrate] | < 50 nM |
| Cc1cccc(C)c1CNc1cc(NC(=O)CCNC(=O)CO)cn2c(C)c(C)nc12 [Example 119, N-(8-((2,6-dimethylbenzyl)amino)-2,3-dimethylimidazo[1,2-a]pyridin-6-yl)-3-(2-hydroxyacetamido)propanamide] | 50 to 100 nM |
| Cc1cccc(C)c1CNc1cc(NC(=O)NCC2CC2)cn2c(C)c(C)nc12 [Example 30, 1-(cyclopropylmethyl)-3-(8-((2,6-dimethylbenzyl)amino)-2,3-dimethylimidazo[1,2-a]pyridin-6-yl)urea hydrochloride] | 100 to 500 nM |

The next lines start with the values.

| IC50 | Compound |
| --- | --- |
| < 50 nM | Cc1cccc(C)c1CNc1cc(NC(=O)N2CC(c3ccccc3)C2)cn2c(C)c(C)nc12.O=C(O)CC(O)(CC(=O)O)C(=O)O [Example 77, N-(8-((2,6-dimethylbenzyl)amino)-2,3-dimethylimidazo[1,2-a]pyridin-6-yl)-3-phenylazetidine-1-carboxamide citrate] |
| < 50 nM | Cc1cccc(C)c1CNc1cc(NC(=O)N(C)C)cn2c(C)c(C)nc12 [Example 43, 3-(8-((2,6-dimethylbenzyl)amino)-2,3-dimethylimidazo[1,2-a]pyridin-6-yl)-1,1-dimethylurea hydrochloride] |
| < 50 nM | CNC(=O)Nc1cc(NCc2c(C)cc(F)cc2C)c2nc(C)c(C)n2c1 [Example 44, 1-(8-((4-fluoro-2,6-dimethylbenzyl)amino)-2,3-dimethylimidazo[1,2-a]pyridin-6-yl)-3-methylurea hydrochloride] |
| 50 to 100 nM | Cc1cccc(C)c1CNc1cc(NC(=O)CN2CCC2=O)cn2c(C)c(C)nc12 [Example 81, N-(8-((2,6-dimethylbenzyl)amino)-2,3-dimethylimidazo [1,2-a]pyridin-6-yl)-2-(2-oxoazetidin-1-yl)acetamide] |
| 100 to 500 nM | Cc1cccc(C)c1CNc1cc(NC(=O)[C@H]2CCCNC2)cn2c(C)c(C)nc12 [Example 118, (S)-N-(8-((2,6-dimethylbenzyl)amino)-2,3-dimethylimidazo[1,2-a]pyridin-6-yl)piperidine-3-carboxamide hydrochloride] |
| 50 to 100 nM | Cc1cc(F)cc(C)c1CNc1cc(N2C(=O)CN(C)C2=O)cn2c(C)c(C)nc12 [Example 116, 3-(8-((4-fluoro-2,6-dimethylbenzyl)amino)-2,3-dimethylimidazolidine[1,2-a]pyridin-6-yl)-1-methylimidazolidine-2,4-dione] |
| > 500 nM | COc1cc(/C=C/C(=O)Nc2cc(NCc3c(C)cccc3C)c3nc(C)c(C)n3c2)ccc1OC(C)=O [Example 108, (E)-4-(3-((8-((2,6-dimethylbenzyl)amino)-2,3-dimethylimidazo[1,2-a]pyridin-6-yl)amino)-3-oxoprop-1-en-1-yl)-2-methoxyphenyl acetate] |
| 100 to 500 nM | CNC(=O)N1CC[C@H]1C(=O)Nc1cc(NCc2c(C)cccc2C)c2nc(C)c(C)n2c1 [Example 79, (S)-N2-(8-((2,6-dimethylbenzyl)amino)-2,3-dimethylimidazo[1,2-a]pyridin-6-yl)-N1-methylazetidine-1,2-dicarboxamide] |
| > 500 nM | CCOC(=O)CC(=O)Nc1cc(NCc2c(C)cccc2C)c2nc(C)c(C)n2c1 [Example 34, ethyl 3-((8-((2,6-dimethylbenzyl)amino)-2,3-dimethylimidazo[1,2-a]pyridin-6-yl)amino)-3-oxopropanoate] |
| 50 to 100 nM | CNCC(=O)Nc1cc(NCc2c(C)cccc2C)c2nc(C)c(C)n2c1 [Example 98, N-(8-((2,6-dimethylbenzyl)amino)-2,3-dimethylimidazo[1,2-a]pyridin-6-yl)-2-(methylamino)acetamide hydrochloride] |

Same assay, conditions: result in words

| Compound | inhibitory activity against proton pump activity |
| --- | --- |
| Cc1cccc(C)c1CNc1cc(NC(=O)N2CC(c3ccccc3)C2)cn2c(C)c(C)nc12.O=C(O)CC(O)(CC(=O)O)C(=O)O [Example 77, N-(8-((2,6-dimethylbenzyl)amino)-2,3-dimethylimidazo[1,2-a]pyridin-6-yl)-3-phenylazetidine-1-carboxamide citrate] | excellent inhibitory properties |
| Cc1cc(F)cc(C)c1CNc1cc(NC(=O)C2(O)CC2)cn2c(C)c(C)nc12 [Example 115, N-(8-((4-fluoro-2,6-dimethylbenzyl)amino)-2,3-dimethylimidazo[1,2-a]pyridin-6-yl)-1-hydroxycyclopropane-1-carboxamide] | excellent inhibitory properties |
| CNC(=O)Nc1cc(NCc2c(C)cccc2C)c2nc(C)c(C)n2c1 [Example 33, hydrochloride] | excellent inhibitory properties |
